Experimental data reported in ChEMBL document CHEMBL3414551, “Selective inhibitors of protein methyltransferases” (J Med Chem, 2015).

Columns and labels:
[1] = biological target: T1, Protein arginine N-methyltransferase 1 (Homo sapiens, UniProt Q99873); assay: Inhibition of recombinant human GST-tagged PRMT1 using GST-Npl3 as substrate
[2] = biological target: T2, Histone-arginine methyltransferase CARM1 (Homo sapiens, UniProt Q86X55); assay: Inhibition of recombinant human GST-tagged CARM1
T2 sequence (Q86X55 whole entry): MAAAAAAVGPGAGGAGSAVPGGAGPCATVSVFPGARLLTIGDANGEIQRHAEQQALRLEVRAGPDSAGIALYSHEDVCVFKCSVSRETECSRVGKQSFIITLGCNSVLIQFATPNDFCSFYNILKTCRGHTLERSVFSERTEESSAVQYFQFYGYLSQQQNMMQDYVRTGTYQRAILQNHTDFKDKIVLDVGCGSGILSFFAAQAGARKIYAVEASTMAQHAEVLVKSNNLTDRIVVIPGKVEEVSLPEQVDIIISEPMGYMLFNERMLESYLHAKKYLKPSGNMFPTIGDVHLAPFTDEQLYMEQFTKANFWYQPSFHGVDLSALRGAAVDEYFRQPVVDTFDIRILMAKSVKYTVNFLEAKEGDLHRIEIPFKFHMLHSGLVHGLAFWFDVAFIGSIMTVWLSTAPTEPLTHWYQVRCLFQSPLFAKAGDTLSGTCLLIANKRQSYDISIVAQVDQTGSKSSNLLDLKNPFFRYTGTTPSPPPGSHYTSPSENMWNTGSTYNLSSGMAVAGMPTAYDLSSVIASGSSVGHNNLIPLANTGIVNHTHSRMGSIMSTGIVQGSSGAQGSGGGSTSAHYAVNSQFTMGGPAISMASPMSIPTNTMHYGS

[3] = biological target: T3, Histone-lysine N-methyltransferase EHMT1 (Homo sapiens, UniProt Q9H9B1); assay: Inhibition of recombinant human GLP (951 to 1235) using Histone H3 peptide (1 to 15) as substrate preincubated on ice for 10 mins followed by 5 mins incubation at 30 degC measured 5 mins post substrate addition by mass spectrophotometric analysis
T3 sequence (Q9H9B1 whole entry): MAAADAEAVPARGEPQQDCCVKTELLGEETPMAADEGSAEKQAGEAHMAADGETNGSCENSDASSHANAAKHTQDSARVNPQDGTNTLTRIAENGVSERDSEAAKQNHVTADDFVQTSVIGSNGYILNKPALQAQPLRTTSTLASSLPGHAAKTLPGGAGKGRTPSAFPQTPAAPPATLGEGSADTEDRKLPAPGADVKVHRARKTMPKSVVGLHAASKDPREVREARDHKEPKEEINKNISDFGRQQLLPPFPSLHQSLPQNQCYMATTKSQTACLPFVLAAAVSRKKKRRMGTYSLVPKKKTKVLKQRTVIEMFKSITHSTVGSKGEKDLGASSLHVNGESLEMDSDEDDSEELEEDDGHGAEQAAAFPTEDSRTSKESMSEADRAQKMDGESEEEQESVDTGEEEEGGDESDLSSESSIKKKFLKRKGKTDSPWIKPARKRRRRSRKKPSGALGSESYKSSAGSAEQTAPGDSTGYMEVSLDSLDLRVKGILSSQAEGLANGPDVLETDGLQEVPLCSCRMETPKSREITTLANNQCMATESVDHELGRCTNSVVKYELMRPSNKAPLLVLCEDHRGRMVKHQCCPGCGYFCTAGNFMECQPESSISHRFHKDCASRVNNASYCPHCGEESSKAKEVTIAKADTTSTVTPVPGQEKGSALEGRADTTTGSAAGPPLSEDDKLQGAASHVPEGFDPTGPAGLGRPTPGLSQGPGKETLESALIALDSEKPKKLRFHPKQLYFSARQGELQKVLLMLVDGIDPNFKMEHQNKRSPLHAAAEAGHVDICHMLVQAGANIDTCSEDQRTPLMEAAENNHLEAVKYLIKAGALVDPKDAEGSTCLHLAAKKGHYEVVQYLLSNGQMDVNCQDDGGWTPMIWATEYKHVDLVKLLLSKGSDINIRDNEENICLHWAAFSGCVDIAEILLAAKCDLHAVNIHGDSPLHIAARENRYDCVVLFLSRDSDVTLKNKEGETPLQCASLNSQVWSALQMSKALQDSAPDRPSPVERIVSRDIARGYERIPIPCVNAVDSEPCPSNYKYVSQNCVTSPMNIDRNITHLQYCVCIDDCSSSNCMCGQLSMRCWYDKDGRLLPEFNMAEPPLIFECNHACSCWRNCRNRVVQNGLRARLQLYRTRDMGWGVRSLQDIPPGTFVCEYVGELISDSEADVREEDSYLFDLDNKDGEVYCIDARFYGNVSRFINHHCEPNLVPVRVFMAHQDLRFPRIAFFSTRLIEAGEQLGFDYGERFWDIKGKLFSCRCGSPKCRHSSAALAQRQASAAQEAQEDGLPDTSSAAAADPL

[4] = biological target: T4, Histone-lysine N-methyltransferase EZH2 (Homo sapiens, UniProt Q15910); assay: Inhibition of N-terminal FLAG tagged full-length human EZH2 expressed in baculovirus infected Sf9 cells using H3K27 as substrate in presence of SAM
[5] = biological target: T4, Histone-lysine N-methyltransferase EZH2; assay: Inhibition of N-terminal FLAG tagged full-length human EZH2 expressed in baculovirus infected Sf9 cells using H3K27 as substrate after 120 mins by mass spectrophotometric analysis
[6] = biological target: Histone-lysine N-methyltransferase EZH2 (Homo sapiens, UniProt Q15910, Y641F); assay: Inhibition of N-terminal FLAG tagged human EZH2 Y641F mutant expressed in baculovirus infected Sf9 cells using H3K27 as substrate after 120 mins by mass spectrophotometric analysis
[7] = species: Homo sapiens; assay: Selectivity ratio of IC50 for human SMYD2 to IC50 for N-terminal His6-tagged human SETD8 (191 to 352)
[8] = species: Homo sapiens; assay: Selectivity ratio of IC50 for N-terminal His6-tagged human PRMT1 (10 to 352) to IC50 for N-terminal His6-tagged human SETD8 (191 to 352)
[9] = species: Homo sapiens; assay: Selectivity ratio of IC50 for N-terminal His6-tagged human PRMT3 (211 to 531) to IC50 for N-terminal His6-tagged human SETD8 (191 to 352)
[10] = biological target: T4, Histone-lysine N-methyltransferase EZH2; assay: Inhibition of EZH2 (unknown origin) using biotinylated-histone H3 (1 to 24) as substrate after 1 hr by scintillation proximity assay in presence of [3H]-SAM
[11] = biological target: T1, Protein arginine N-methyltransferase 1; assay: Inhibition of recombinant GST-tagged PRMT1 (unknown origin) using GST-P3 as substrate after 90 mins by scintillation counting analysis in presence of [3H]AdoMet
[12] = biological target: T5, Histone-arginine methyltransferase CARM1 (Homo sapiens) (UniProt Q86X55); assay: Inhibition of CARM1 in human HeLa cells assessed as reduction of H3R17 methylation at 5 uM after 24 hrs by Western blot analysis relative to control; assay type: cell-based
T5 sequence (whole entry): T2 sequence (Q86X55 whole entry)

[13] = cells; conditions: Homo sapiens, HL-60
[14] = cells; conditions: Homo sapiens, U-937
[15] = system: REH; assay: cells; conditions: Homo sapiens
[16] = system: 697; assay: cells; conditions: Homo sapiens
[17] = system: Jurkat; assay: cells; conditions: Homo sapiens
[18] = system: Kasumi 1; assay: cells; conditions: Homo sapiens
[19] = biological target: Histone-lysine N-methyltransferase, H3 lysine-79 specific (Homo sapiens, UniProt Q8TEK3); assay: Inhibition of DOT1L in human MCF10A cells assessed as reduction of H3K79 level; assay type: cell-based, MCF-10A
[20] = system: Mus musculus; assay: Cmax in Swiss albino mouse at 50 mg/kg, po; assay type: ADME, organism-based; parameters: dose 50 mg/kg, route oral; conditions: in vivo
[21] = biological target: T4, Histone-lysine N-methyltransferase EZH2; assay: Inhibition of human EZH2 using SAM and histone H3 (16 to 30) as substrate preincubated for 30 mins followed by substrate addition measured after 90 mins by flash plate assay
[22] = biological target: T6, Histone-lysine N-methyltransferase EHMT2 (Homo sapiens, UniProt Q96KQ7); assay: Inhibition of G9a (unknown origin) using SAM/biotinylated H3 as substrate preincubated for 1 hr followed by substrate addition measured after 2 hrs by ELISA
T6 sequence (Q96KQ7 whole entry): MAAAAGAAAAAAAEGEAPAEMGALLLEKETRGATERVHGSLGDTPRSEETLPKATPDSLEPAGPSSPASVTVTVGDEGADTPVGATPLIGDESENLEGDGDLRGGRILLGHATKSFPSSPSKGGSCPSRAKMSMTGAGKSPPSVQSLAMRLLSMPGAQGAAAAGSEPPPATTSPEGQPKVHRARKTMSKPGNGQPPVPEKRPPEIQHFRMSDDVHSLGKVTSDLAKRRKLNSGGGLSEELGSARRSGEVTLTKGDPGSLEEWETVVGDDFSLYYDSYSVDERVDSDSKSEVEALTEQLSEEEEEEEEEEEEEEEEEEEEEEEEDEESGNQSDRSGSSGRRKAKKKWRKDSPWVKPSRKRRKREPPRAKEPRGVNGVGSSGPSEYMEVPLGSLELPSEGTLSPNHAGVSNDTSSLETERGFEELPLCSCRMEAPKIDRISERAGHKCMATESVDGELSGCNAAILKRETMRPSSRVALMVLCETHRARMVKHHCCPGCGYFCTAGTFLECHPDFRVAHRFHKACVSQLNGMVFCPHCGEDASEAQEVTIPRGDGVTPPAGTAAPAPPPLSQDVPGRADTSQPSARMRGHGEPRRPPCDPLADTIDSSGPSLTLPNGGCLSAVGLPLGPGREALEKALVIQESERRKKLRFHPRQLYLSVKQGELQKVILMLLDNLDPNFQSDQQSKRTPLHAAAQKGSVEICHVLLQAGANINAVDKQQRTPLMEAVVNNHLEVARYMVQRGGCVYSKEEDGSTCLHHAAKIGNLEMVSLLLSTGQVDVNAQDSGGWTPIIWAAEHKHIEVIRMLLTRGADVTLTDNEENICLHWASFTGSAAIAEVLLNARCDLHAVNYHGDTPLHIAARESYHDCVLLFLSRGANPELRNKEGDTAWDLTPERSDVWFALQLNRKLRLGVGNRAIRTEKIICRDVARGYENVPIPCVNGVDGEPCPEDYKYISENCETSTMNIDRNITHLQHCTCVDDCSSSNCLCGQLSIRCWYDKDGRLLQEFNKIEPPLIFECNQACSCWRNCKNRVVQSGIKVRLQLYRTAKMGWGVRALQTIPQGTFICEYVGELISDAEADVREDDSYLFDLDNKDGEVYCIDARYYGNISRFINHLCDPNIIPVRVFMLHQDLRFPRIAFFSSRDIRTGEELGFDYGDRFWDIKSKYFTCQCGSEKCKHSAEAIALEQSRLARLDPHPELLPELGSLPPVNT

[23] = biological target: N-lysine methyltransferase SMYD2 (Homo sapiens, UniProt Q9NRG4); assay: Binding affinity to recombinant human full-length SMYD2 (1 to 433) by ITC analysis
[24] = biological target: T7, N-lysine methyltransferase KMT5A (Homo sapiens, UniProt Q9NQR1); assay: Inhibition of N-terminal His6-tagged human SETD8 (191 to 352) assessed as incorporation of [3H]-methyl group from [3H-Me]-SAM to biotinylated H4K20 peptide substrate preincubated for 10 mins followed by substrate addition by liquid scintillation counting analysis
T7 sequence (Q9NQR1 whole entry): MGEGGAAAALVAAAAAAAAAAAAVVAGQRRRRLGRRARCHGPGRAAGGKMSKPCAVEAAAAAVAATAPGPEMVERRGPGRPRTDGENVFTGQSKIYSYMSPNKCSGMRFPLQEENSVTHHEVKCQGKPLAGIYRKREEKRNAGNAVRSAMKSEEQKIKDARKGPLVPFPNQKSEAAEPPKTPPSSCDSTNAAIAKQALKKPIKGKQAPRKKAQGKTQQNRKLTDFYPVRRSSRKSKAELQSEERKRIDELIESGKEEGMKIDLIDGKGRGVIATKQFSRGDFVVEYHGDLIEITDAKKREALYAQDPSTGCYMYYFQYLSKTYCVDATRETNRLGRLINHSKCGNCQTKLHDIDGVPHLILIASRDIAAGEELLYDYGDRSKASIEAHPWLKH

T4 sequence (Q15910 whole entry): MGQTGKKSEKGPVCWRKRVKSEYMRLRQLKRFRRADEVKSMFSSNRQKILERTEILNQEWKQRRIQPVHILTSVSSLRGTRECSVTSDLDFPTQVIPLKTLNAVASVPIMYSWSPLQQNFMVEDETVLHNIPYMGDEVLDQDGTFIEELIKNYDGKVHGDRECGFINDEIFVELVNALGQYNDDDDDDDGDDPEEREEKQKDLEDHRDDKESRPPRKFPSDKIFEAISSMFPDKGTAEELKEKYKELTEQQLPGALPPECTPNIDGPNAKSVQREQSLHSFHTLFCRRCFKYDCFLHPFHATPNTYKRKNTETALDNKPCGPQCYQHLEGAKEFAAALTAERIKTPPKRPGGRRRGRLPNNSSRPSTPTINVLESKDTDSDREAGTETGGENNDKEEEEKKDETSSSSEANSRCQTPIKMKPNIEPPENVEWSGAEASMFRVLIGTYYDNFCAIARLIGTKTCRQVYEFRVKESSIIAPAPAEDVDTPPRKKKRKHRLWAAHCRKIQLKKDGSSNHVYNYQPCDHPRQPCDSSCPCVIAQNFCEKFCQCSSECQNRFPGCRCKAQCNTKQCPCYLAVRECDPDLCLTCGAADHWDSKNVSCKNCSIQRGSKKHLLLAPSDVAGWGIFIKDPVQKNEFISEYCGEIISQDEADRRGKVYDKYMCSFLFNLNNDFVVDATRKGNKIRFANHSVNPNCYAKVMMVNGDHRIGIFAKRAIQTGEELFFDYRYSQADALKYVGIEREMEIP
T1 sequence (Q99873 whole entry): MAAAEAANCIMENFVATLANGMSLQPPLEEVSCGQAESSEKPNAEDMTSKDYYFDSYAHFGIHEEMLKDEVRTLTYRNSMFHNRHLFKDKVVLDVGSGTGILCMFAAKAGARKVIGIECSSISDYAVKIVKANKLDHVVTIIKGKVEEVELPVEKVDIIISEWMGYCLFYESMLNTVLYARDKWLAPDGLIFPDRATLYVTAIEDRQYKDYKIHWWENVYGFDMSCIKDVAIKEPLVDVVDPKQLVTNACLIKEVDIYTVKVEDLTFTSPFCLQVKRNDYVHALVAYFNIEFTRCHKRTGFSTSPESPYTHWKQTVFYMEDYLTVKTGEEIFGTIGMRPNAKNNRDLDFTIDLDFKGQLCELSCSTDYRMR
Sequence of N-lysine methyltransferase SMYD2 (Q9NRG4 whole entry): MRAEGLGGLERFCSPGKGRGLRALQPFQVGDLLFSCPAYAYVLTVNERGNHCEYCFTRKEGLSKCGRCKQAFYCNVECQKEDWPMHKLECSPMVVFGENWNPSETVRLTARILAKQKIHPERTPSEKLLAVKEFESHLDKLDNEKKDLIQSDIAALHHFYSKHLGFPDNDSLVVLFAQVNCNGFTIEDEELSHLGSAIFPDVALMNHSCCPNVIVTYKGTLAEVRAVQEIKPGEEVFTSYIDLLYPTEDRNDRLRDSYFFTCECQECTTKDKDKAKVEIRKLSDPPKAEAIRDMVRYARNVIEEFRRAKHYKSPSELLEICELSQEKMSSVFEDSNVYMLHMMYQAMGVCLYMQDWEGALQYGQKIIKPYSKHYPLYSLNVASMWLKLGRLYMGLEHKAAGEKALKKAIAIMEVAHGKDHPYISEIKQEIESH
Sequence of Histone-lysine N-methyltransferase EZH2 (Homo sapiens, UniProt Q15910, Y641F) (Q15910 whole entry Y641F): as the sequence (Q15910 whole entry) above, with Y641F counted along it
Sequence of Histone-lysine N-methyltransferase, H3 lysine-79 specific (Q8TEK3 whole entry): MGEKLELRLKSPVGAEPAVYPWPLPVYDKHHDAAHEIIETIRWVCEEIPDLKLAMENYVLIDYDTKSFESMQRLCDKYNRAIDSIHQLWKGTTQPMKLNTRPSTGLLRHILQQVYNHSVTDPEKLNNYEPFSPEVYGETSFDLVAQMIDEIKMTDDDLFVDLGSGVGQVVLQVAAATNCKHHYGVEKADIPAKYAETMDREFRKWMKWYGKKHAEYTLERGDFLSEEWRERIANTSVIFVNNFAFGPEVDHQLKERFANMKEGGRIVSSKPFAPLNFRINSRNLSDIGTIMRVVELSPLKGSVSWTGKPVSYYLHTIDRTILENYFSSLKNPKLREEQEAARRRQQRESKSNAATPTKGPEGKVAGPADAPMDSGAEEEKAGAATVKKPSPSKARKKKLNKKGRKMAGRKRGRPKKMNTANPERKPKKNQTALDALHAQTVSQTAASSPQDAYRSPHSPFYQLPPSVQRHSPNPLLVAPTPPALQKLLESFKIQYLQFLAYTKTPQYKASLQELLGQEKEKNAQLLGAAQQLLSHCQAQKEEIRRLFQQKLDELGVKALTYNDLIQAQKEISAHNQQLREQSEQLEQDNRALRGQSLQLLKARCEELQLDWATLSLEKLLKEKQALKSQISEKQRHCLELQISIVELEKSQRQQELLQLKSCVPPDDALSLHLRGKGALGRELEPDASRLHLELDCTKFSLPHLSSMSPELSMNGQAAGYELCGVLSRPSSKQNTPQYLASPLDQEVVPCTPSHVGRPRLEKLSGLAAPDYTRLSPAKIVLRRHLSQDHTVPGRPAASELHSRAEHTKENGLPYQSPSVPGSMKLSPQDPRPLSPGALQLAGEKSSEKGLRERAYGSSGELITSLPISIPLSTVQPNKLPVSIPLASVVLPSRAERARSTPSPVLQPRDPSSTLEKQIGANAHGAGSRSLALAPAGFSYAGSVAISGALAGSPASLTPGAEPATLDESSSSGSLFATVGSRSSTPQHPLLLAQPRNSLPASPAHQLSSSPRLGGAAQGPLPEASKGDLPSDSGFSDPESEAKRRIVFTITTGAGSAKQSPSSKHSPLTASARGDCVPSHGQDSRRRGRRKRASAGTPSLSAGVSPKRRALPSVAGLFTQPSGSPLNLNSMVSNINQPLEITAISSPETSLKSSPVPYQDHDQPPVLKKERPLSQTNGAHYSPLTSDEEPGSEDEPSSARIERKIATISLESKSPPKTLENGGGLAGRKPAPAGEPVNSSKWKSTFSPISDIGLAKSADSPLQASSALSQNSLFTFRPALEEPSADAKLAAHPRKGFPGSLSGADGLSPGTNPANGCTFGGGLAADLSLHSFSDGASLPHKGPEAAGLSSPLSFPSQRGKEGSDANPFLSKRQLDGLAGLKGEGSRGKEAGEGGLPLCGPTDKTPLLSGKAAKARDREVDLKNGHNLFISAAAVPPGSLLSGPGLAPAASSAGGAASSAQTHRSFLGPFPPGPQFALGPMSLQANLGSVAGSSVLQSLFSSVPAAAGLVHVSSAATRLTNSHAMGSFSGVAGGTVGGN

## COc1ccc(/N=N/c2c(S(=O)(=O)O)cc3cc(Nc4nc(Cl)nc(Cl)n4)ccc3c2O)cc1
[1]
  IC50: 4200 nM
[2]
  IC50: 2600 nM

## COc1cc2c(NC3CCN(CCCCCN)CC3)nc(NCCCN(C)C)nc2cc1OCCCCCN
[3]
  IC50: 100 nM

## CCC(CC)n1ccc2c(C(=O)NCc3c(C)cc(C)[nH]c3=O)cc(C#N)cc21
[4]
  Ki: 13 nM
[5]
  IC50: 15 nM
[6]
  IC50: 13 nM

## O=C1C(Cl)=C(NCCN2CCOCC2)C(=O)c2ncccc21
[7]
  Ratio IC50: 2.5
[8]
  Ratio IC50: > 6
[9]
  Ratio IC50: > 6

## CCCc1cc(C)[nH]c(=O)c1CNC(=O)c1cc(-c2ccc(N3CCN(CCCCc4cn(CCN5C(=O)\C(=C/C=C/C=C6/N(CCC(=O)OCOC(C)=O)c7ccc(C(=O)OCOC(C)=O)cc7C6(C)C)C(=O)N(CC)C5=O)nn4)CC3)nc2)cc2c1cnn2C(C)C
[10]
  IC50: 21 nM

## NCCCN(CC[C@H](N)C(=O)O)C[C@H]1O[C@@H](n2cnc3c(N)ncnc32)[C@H](O)[C@@H]1O
[11]
  IC50: 3900 nM

## O=c1oc2c(O)c(O)cc3c(=O)oc4c(O)c(O)cc1c4c23
[12]
  inhibition: > 50%

## CC(C)N(CCCNC(=O)Nc1ccc(C(C)(C)C)cc1)C[C@H]1O[C@@H](n2ccc3c(N)ncnc32)[C@H](O)[C@@H]1O
[13]
  IC50: > 10000 nM
[14]
  IC50: > 10000 nM
[15]
  IC50: > 10000 nM
[16]
  IC50: > 10000 nM
[17]
  IC50: > 10000 nM
[18]
  IC50: > 10000 nM

## CC(C)N(CCCNC(=O)Nc1ccc(C(C)(C)C)cc1)C[C@H]1O[C@@H](n2cc(Br)c3c(N)ncnc32)[C@H](O)[C@@H]1O
[19]
  IC50: 8.8 nM

## CCCc1cc(C)[nH]c(=O)c1CNC(=O)c1cc(-c2ccc(N3CCN(C(C)C)CC3)nc2)cc2c1cnn2C(C)C
[20]
  Cmax: 4.7 µM
[10]
  IC50: < 10 nM

## Cc1cc(C)c(CNC(=O)c2cc(-c3ccc4c(c3)OCCO4)nc3c2cnn3C(C)C)c(=O)[nH]1
[21]
  IC50: 620 nM

## CN1C(=O)[C@@H]2C[C@@]3([C@@]45C[C@H]6C(=O)N(C)[C@@H](CO)C(=O)N6[C@@H]4Nc4ccccc45)c4ccccc4N[C@H]3N2C(=O)[C@@H]1CO
[22]
  IC50: > 50000 nM

## O=C1COc2c(CCNCCN(C(=O)CCNCCc3ccc(Cl)c(Cl)c3)C3CCCCC3)ccc(O)c2N1
[23]
  Kd: 500 nM

## Cc1ccc(/N=C2\CC(=O)c3sc(C)nc3C2=O)cc1
[24]
  IC50: 500 nM
